Assay results: patent US10538099B2, “Inkjet recording apparatus, printer, and method for manufacturing cured product” (Ricoh Company, Ltd., priority 2016, dated 2020)
Read-outs that look alike come from different tables or passages of the source.

Legend:
[1] = evaluated by a test method based on OECD Test Guideline 406 in MSDS; cited from earlier work
female mice = assay: Skin sensitization test according to the LLNA (Local Lymph Node Assay), BrdU intake; assay type: in vivo; settings: test substance 50.0 w/v % in acetone/olive oil 4/1, 25 μL/auricle once a day for three days; SI less than 3 = negative in skin sensitizing property
Protocol: Stimulus index (SI) was measured by a skin sensitization test according to the LLNA (Local Lymph Node Assay) as follows.
As a positive control, α-hexyl cinnamaldehyde (HCA, product of Wako Pure Chemical Industries, Ltd.) was used.
As a medium, a mixture liquid of acetone (product of Wako Pure Chemical Industries, Ltd.) and olive oil (product of Fudimi Pharmaceutical Co., Ltd.) in a volume ratio of 4/1 was used.
Before treated with the test materials, the positive control, or the medium control, female mice were acclimated for 8 days including 6-day quarantine. No abnormalities were found in all the mice (used animals) during the quarantine/acclimation period.
Based on the body weights measured 2 days before the initiation of sensitization, they were categorized into 2 groups (4 mice/group) by the body weight stratified random sampling method so that the body weight of each individual was within ±20% of the average body weight of all the individuals. Each of the used animals was 8 weeks old to 9 weeks old at the time of the initiation of sensitization. […]
About 24 hours after the administration of BrdU, the used animals were allowed to undergo euthanasia, and their auricular lymph nodes were sampled. […] Also, the average of the weights of the auricular lymph nodes and the standard error thereof were calculated for each group. […]

[2] = evaluated by Maximization test method according to the document; cited from earlier work
[3] = risk phrase code R43 or H317; cited from earlier work

| Molecule | skin sensitizing property [1] | skin sensitizing property [2] | other results |
| --- | --- | --- | --- |
| O=C(c1ccccc1)C1(O)CCCCC1 [1-Hydroxy-cyclohexyl phenyl ketone] | None | – | – |
| CCC(Cc1ccc(C)cc1)(C(=O)c1ccc(N2CCOCC2)cc1)N(C)C (stereo not drawn) [2-Dimethylamino-2-(4-methylbenzyl)-1-(4-morpholine-4-yl-phenyl)butane-1-one] | None | – | – |
| C=C(C)C(=O)OCC(CO)OC(=O)C(=C)C (stereo not drawn) [Glycerol dimethacrylate] | – | – | SI measured by the LLNA test (stimulus index) (female mice): 1.2 |
| C=C(C)C(=O)OCCCCCC [n-Hexyl methacrylate] | – | Negative | – |
| C=C(C)C(=O)OCCCCC [n-Pentyl methacrylate] | – | Negative | – |
| C=CC(=O)OC(C)(C)C [t-Butyl acrylate] | – | – | skin sensitizing property [3]: Positive |
| C=C(C)C(=O)OC(C)(C)C [t-Butyl methacrylate] | – | Negative | – |
| Caprolactone-modified dipentaerythritol hexaacrylate | Negative | – | – |
| Tricyclodecane dimethanol dimethacrylate | – | – | SI measured by the LLNA test (stimulus index) (female mice): 1.3 |
